We go through 66 molecules from patent US12202826B2, “N-pyridinyl acetamide derivatives as inhibitors of the Wnt signaling pathway” (Redx Pharma PLC, priority 2014, dated 2025).

A value given as a limit tells only on which side of the number the result lay.

The first test concerns L-Wnt cells (murine Wnt-3a) / Leading Light Wnt Reporter Cells (luciferase under control of Wnt pathway response elements). As to the kind of experiment: Dual-Cell β-Catenin Reporter Assay. The note with it: category of IC50; luciferase signal reduced to 50% of DMSO control. It is filed as cell-based, Mouse. The procedure: Dual-Cell β-Catenin Reporter Assay
Mouse L cells transfected to constitutively produce biologically active murine Wnt-3a, referred to as L-Wnt cells, were purchased from the American Type Culture Collection, ATCC, Manassas, VA (ATCC). These cells were cultured in DMEM supplemented with 10% FCS (Gibco/Invitrogen, Carlsbad, CA), 1% geneticin and 1% sodium pyruvate (Sigma) at 37° C. with 5% CO2. The cells were seeded into 96 well plates and treated with serial dilutions of compound diluted to 0.1% DMSO concentration. After 24 hours, cell supernatants were transferred to a 96 well plate previously seeded with Leading Light® Wnt Reporter Cells, stably transfected with a luciferase gene under control of Wnt pathway response elements. After a further 24 hours, cells are treated with One-glo luciferase assay system (Promega, Madison, WI) and the luminescent signal read by envision. The IC50 of the compound is determined as the concentration that reduces the induced luciferase signal to 50% of the DMSO control.
The category “+” refers to compounds with an IC50 of >100 μM. The category “++” refers to compounds with an IC50 of 5 to 100 μM. The category “+++” refers to compounds with an IC50<5 μM.
`Cc1cc(-c2cnn(CC(=O)Nc3ccc(N4CCN(C(=O)OC(C)(C)C)CC4)cn3)c2)ccn1` [compound 8] came in with an IC50 of 5 to 100 nM.

`O=C(Cn1cnc(-c2ccnc(C(F)(F)F)c2)c1)Nc1ccc(-c2cncnc2)nc1` [compound 11] had an IC50 above 100 nM.

`O=C(Cn1cnc(-c2ccnc(C(F)(F)F)c2)c1)Nc1ccc(-c2cnccn2)nc1` [compound 13] displayed an IC50 of 5 to 100 nM.

`O=C(Cn1cc(-c2ccnc(C(F)(F)F)c2)cn1)Nc1ccc(-c2cnccn2)cn1` [compound 17] returned an IC50 below 5 nM. The molecule `O=C(Cn1cc(-c2ccnc(C(F)F)c2)cn1)Nc1ccc(-c2cnccn2)cn1` [compound 21] gave an IC50 below 5 nM.

Molecule `O=C(Cc1cc(-c2ccnc(C(F)(F)F)c2)cs1)Nc1ccc(-c2cnccn2)cn1` [compound 23] yielded an IC50 below 5 nM. Still for that read-out and setting: to `Cc1cc(-c2csc(CC(=O)Nc3ccc(-c4cnccn4)cn3)c2)ccn1` [compound 24] belongs below 5 nM; to `Cc1ncsc1-c1cnn(CC(=O)Nc2ccc(-c3cnccn3)cn2)c1` [compound 25], 5 to 100 nM; to `Cn1nccc1-c1cnn(CC(=O)Nc2ccc(-c3cnccn3)cn2)c1` [compound 26], 5 to 100 nM.

The molecule `O=C(Cn1cc(-c2cnsc2)cn1)Nc1ccc(-c2cnccn2)cn1` [compound 27] came in with an IC50 of 5 to 100 nM. The same measure, in the same setting: as for `O=C(Cc1cc(C2=CCOCC2)cs1)Nc1ccc(-c2cnccn2)cn1` [compound 28], the figure is 5 to 100 nM. For `Cc1ncc(-c2cnn(CC(=O)Nc3ccc(-c4cnccn4)cn3)c2)s1` [compound 29], the concentration for half-maximal inhibition (IC50) was above 100 nM. Still for that read-out and setting: as for `O=C(Cn1cc(-c2ccncn2)cn1)Nc1ccc(-c2cnccn2)cn1` [compound 30], the figure is above 100 nM; as for `Cn1nccc1-c1csc(CC(=O)Nc2ccc(-c3cnccn3)cn2)c1` [compound 31], 5 to 100 nM; as for `Cn1nccc1-c1cn(CC(=O)Nc2ccc(-c3cnccn3)cn2)cn1` [compound 32], above 100 nM. Molecule `O=C(Cn1cc(-c2cn[nH]c2)cn1)Nc1ccc(-c2cnccn2)cn1` [compound 33] returned an IC50 above 100 nM.

In turn, `O=C(Cn1cc(-c2ccnc(C(F)(F)F)c2)cn1)Nc1ccc(-c2cncnc2)cn1` [compound 34] yielded an IC50 below 5 nM. For the molecule `Cc1nn(CC(=O)Nc2ccc(-c3cncnc3)cn2)c(C)c1-c1ccnc(C(F)(F)F)c1` [compound 35], the IC50 was below 5 nM. Still for that read-out and setting: as for `Cc1noc(C)c1-c1cnn(CC(=O)Nc2ccc(-c3cnccn3)cn2)c1` [compound 36], the figure is 5 to 100 nM; as for `O=C(Cn1cc(-c2ccnc(C(F)(F)F)n2)cn1)Nc1ccc(-c2cnccn2)cn1` [compound 37], below 5 nM.

With `Cc1nccc(-c2cnn(CC(=O)Nc3ccc(-c4cnccn4)cn3)c2)n1` [compound 38], the IC50 was 5 to 100 nM.

`Cc1cc(-c2cnn(CC(=O)Nc3ccc(-c4cnccn4)cn3)c2)ncn1` [compound 39] yielded an IC50 above 100 nM.

`Cc1nn(CC(=O)Nc2ccc(-c3cnccn3)cn2)c(C)c1C1CCOCC1` [compound 40] came in with an IC50 below 5 nM.

In turn, `O=C(Cn1cc(-c2cc(C(F)(F)F)ncn2)cn1)Nc1ccc(-c2cnccn2)cn1` [compound 41] yielded an IC50 of 5 to 100 nM.

With `O=C(Cn1cnc(C2=CCNCC2)c1)Nc1ccc(-c2cnccn2)cn1` [compound 42], the IC50 is above 100 nM. Turning to `CC(C)n1nccc1-c1cnn(CC(=O)Nc2ccc(-c3cnccn3)cn2)c1` [compound 43], the IC50 is above 100 nM.

For `Cc1cc(-c2c(C)nn(CC(=O)Nc3ccc(-c4cnccn4)cn3)c2C)ccn1` [compound 44], the IC50 was below 5 nM. On the same count and under the same terms, to `O=C(Cn1cc(-c2ccnn2C2CCCC2)cn1)Nc1ccc(-c2cnccn2)cn1` [compound 45] belongs above 100 nM; to `Cc1nn(CC(=O)Nc2ccc(-c3cnccn3)cn2)c(C)c1C1=CCN(C(=O)OC(C)(C)C)CC1` [compound 46], 5 to 100 nM; to `Cc1nn(CC(=O)Nc2ccc(-c3cnccn3)cn2)c(C)c1-c1ccnn1C1CCCC1` [compound 47], above 100 nM.

With `Cc1nn(CC(=O)Nc2ccc(-c3cnccn3)cn2)c(C)c1C1=CCOCC1` [compound 48], the IC50 was below 5 nM. Still for that read-out and setting: to `Cc1nn(CC(=O)Nc2ccc(C3=CCOCC3)cn2)c(C)c1-c1ccnc(C(F)(F)F)c1` [compound 49] belongs 5 to 100 nM; to `Cc1nn(CC(=O)Nc2ccc(-c3cnccn3)cn2)c(C)c1-c1ccnn1C` [compound 50], 5 to 100 nM; to `Cc1cc(-c2c(C)nn(CC(=O)Nc3ccc(-c4cnccn4)cn3)c2C)cnn1` [compound 51], 5 to 100 nM.

For `Cc1nn(CC(=O)Nc2ccc(-c3cccnc3)cn2)c(C)c1-c1ccnc(C(F)(F)F)c1` [compound 52], the IC50 is below 5 nM. In the case of `Cc1nn(CC(=O)Nc2ccc(-c3cnccn3)cn2)c(C)c1C1=CCNCC1` [compound 53], the IC50 is above 100 nM.

Molecule `Cc1nn(CC(=O)Nc2ccc(-c3ccnn3C)cn2)c(C)c1-c1ccnc(C(F)(F)F)c1` [compound 55] showed an IC50 below 5 nM. `Cc1nn(CC(=O)Nc2ccc(-c3cnccn3)cn2)cc1-c1ccnc(C(F)(F)F)c1` [compound 56] displayed an IC50 below 5 nM. In the case of `Cc1nn(CC(=O)Nc2ccc(-c3cnccn3)cn2)c(C)c1-c1cc(Cl)ncn1` [compound 57], the IC50 was in the range of 5 to 100 nM. Still for that read-out and setting: as for `Cc1nn(CC(=O)Nc2ccc(-c3cnccn3)cn2)c(C)c1-c1cnn(C2CC2)c1` [compound 58], the figure is 5 to 100 nM; as for `Cc1nn(CC(=O)Nc2ccc(-c3ccccc3C#N)cn2)c(C)c1-c1ccnc(C(F)(F)F)c1` [compound 59], below 5 nM. In turn, `Cc1nn(CC(=O)Nc2ccc(-c3ccncc3)cn2)c(C)c1-c1ccnc(C(F)(F)F)c1` [compound 60] gave an IC50 of 5 to 100 nM.

On to `Cc1nn(CC(=O)Nc2ccc(-c3cnccn3)cn2)c(C)c1-c1ccnc(F)c1` [compound 61], for which the IC50 is below 5 nM. On the same count and under the same terms, to `Cc1nn(CC(=O)Nc2ccc(-c3cnccn3)cn2)c(C)c1-c1cnn(C(C)C)c1` [compound 62] belongs 5 to 100 nM.

The molecule `Cc1nn(CC(=O)Nc2ccc(C3=CCS(=O)(=O)CC3)cn2)c(C)c1-c1ccnc(C(F)(F)F)c1` [compound 63] registered an IC50 of 5 to 100 nM. The same measure, in the same setting: to `COc1ccc(-c2c(C)nn(CC(=O)Nc3ccc(-c4cnccn4)cn3)c2C)cn1` [compound 64] belongs 5 to 100 nM; to `Cc1nn(CC(=O)Nc2ccc(-c3ncccn3)cn2)c(C)c1-c1ccnc(C(F)(F)F)c1` [compound 65], below 5 nM. The same measure, in the same setting: to `Cc1nn(CC(=O)Nc2ccc(-c3ccc(C#N)nc3)cn2)c(C)c1-c1ccnc(C(F)(F)F)c1` [compound 66] belongs below 5 nM; to `Cc1cn(CC(=O)Nc2ccc(-c3cnccn3)cn2)nc1-c1ccnc(C(F)(F)F)c1` [compound 67], below 5 nM; to `Cc1nc(-c2ccnc(C(F)(F)F)c2)cn1CC(=O)Nc1ccc(-c2cnccn2)cn1` [compound 68], below 5 nM.

The molecule `Cc1nn(CC(=O)Nc2ccc(C3CCOCC3)cn2)c(C)c1-c1ccnc(C(F)(F)F)c1` [compound 69] returned an IC50 of 5 to 100 nM. Still for that read-out and setting: to `Cc1nn(CC(=O)Nc2ccc(-c3cnccn3)cn2)c(C)c1-c1cn(C)nc1C(F)(F)F` [compound 70] belongs 5 to 100 nM; to `Cc1nn(CC(=O)Nc2ccc(-c3ccnc(C#N)c3)cn2)c(C)c1-c1ccnc(C(F)(F)F)c1` [compound 71], below 5 nM. On the same count and under the same terms, as for `Cc1nc(-c2ccnc(C(F)(F)F)c2)c(C)n1CC(=O)Nc1ccc(-c2cnccn2)cn1` [compound 72], the figure is below 5 nM.

In turn, `Cc1nn(CC(=O)Nc2ncc(-c3cnccn3)cc2F)c(C)c1-c1ccnc(C(F)(F)F)c1` [compound 73] displayed an IC50 of 5 to 100 nM. Same read-out and setting: to `Cc1cc(-c2cnccn2)cnc1NC(=O)Cn1nc(C)c(-c2ccnc(C(F)(F)F)c2)c1C` [compound 76] belongs above 100 nM; to `COc1cc(-c2cnccn2)cnc1NC(=O)Cn1nc(C)c(-c2ccnc(C(F)(F)F)c2)c1C` [compound 77], 5 to 100 nM. Same read-out and setting: to `Cc1nn(CC(=O)Nc2ccc(-c3cnccn3)cn2)c(C)c1-c1cc(N(C)C)nc(C(F)(F)F)n1` [compound 78] belongs below 5 nM; to `Cc1nn(CC(=O)Nc2ccc(-c3cnccn3)cn2)c(C)c1-c1ccnc(N)c1` [compound 79], 5 to 100 nM. Molecule `Cc1nn(CC(=O)Nc2ncc(-c3cnccn3)cc2C#N)c(C)c1-c1ccnc(C(F)(F)F)c1` [compound 80] registered an IC50 of 5 to 100 nM.

As for `Cc1nn(C(C)C(=O)Nc2ccc(-c3cnccn3)cn2)c(C)c1C1=CCOCC1` (centres unmarked) [compound 81], the IC50 is below 5 nM. The molecule `Cc1nn(CC(=O)Nc2ccc(-c3cnccn3)cn2)c(C)c1C1=CC(C)OC(C)C1` (centres unmarked) [compound 82] came in with an IC50 below 5 nM. The same measure, in the same setting: to `Cc1nn(C(=O)C(C)(C)Nc2ccc(-c3cnccn3)cn2)c(C)c1C1=CCCOC1` [compound 83] belongs 5 to 100 nM. `Cc1nn(CC(=O)Nc2ccc(-c3cncnc3)cn2)c(C)c1C1=CC(C)OC(C)C1` (centres unmarked) [compound 84] displayed an IC50 below 5 nM. Still for that read-out and setting: as for `Cc1nn(CC(=O)Nc2ccc(-c3ncccn3)cn2)c(C)c1C1=CC(C)OC(C)C1` (centres unmarked) [compound 85], the figure is 5 to 100 nM; as for `Cc1cc(-c2nc(C)n(CC(=O)Nc3ccc(-c4cnccn4)cn3)c2C)ccn1` [compound 86], below 5 nM.

Still in this test, the particulars now being: luciferase signal reduced to 50% of DMSO control.
`O=C(Cc1cc(-c2ccnc(C(F)(F)F)c2)cs1)Nc1ccc(-c2cnccn2)cn1` [compound 23] had an IC50 of 0.34 nM. On the same count and under the same terms, to `Cc1nn(CC(=O)Nc2ccc(-c3cncnc3)cn2)c(C)c1-c1ccnc(C(F)(F)F)c1` [compound 35] belongs 0.34 nM.

As a reminder, the IC50 is the concentration needed to halve the response being measured. Read a low IC50 as higher potency.
